The values below come from patent publication US20170027172A1, “USE OF SUBSTITUTE OXO TETRAHYDROQUINOLINE SULFONAMIDES OR SALTS THEREOF FOR RAISING STRESS TOLERANCE OF PLANTS” (BAYER CROPSCIENCE AKTIENGESELLSCHAFT, priority 2014, published 2017).

Each structure is given as a SMILES string.

The target in this assay is T1, phosphatase ABI1 via the co-regulator RCAR11/PYR1 (Arabidopsis thaliana, UniProt O49686+P49597).
T1 sequence (O49686 1-191): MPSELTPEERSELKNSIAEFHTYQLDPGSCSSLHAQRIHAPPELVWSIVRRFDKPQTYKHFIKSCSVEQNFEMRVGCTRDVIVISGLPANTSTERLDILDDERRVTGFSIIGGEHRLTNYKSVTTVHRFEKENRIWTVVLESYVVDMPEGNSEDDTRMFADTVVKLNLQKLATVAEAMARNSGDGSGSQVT
T1 sequence (P49597 1-434): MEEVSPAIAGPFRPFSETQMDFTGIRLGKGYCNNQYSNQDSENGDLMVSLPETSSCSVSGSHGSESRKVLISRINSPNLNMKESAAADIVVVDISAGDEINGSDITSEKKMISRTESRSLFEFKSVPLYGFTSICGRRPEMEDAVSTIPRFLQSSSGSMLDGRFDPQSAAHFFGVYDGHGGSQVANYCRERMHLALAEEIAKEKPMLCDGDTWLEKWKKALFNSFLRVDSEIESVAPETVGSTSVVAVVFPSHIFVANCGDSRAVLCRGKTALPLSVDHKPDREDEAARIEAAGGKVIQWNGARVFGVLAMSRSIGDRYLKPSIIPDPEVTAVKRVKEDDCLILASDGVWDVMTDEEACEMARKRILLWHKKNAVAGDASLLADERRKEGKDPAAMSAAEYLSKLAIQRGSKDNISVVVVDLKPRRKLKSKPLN
The experiment in a line: In vitro inhibition of the phosphatase ABI1 via the co-regulator RCAR11/PYR1, MUP dephosphorylation. Details: dose or concentration left out as unconfirmed. The settings on record: in a solution of DMSO and water; fluorescence at 460 nm. It counts as biochemical. The text has this:
Effects of the phytohormone abscisic acid (ABA) on the behavior of plants under abiotic stress and the mechanism of action of ABA are described in the literature (cf. Abrams et al., WO97/23441, Park et al. Science, 2009, 324, 1068; Grill et al. Science, 2009, 324, 1064; Tanokura et al. Biophysics, 2011, 7, 123; Schroeder et al. Plant J. 2010, 61, 290). Therefore, it is possible with the aid of a suitable in vitro test system to derive a correlation between the action of ABA and the stress response of a plant under abiotic stress. In the event of water deficiency (drought stress), plants form the phytohormone abscisic acid (ABA). This binds, along with a co-regulator (Regulatory Component of ABA-Receptor=RCAR according to Grill et al. Science, 2009, 324, 1064 or PYR/PYL according to Cutler et al. Science, 2009, 324, 1068), to a phosphatase (e.g. ABI1, a type 2C protein phosphatase, also abbreviated to PP2C) and inhibits its activity. As a result, a “downstream” kinase (e.g. SnRK2) is no longer dephosphorylated. This kinase, which is thus active, via phosphorylation of transcription factors (e.g. AREB/ABF, cf. Yoshida et al., 2010, 61, 672), switches on a genetic protection program to increase drought stress tolerance. The assay described hereinafter utilizes the inhibition of the phosphatase ABI1 via the co-regulator RCAR11/PYR1 aus Arabidopsis thaliana. For the determination of activity, the dephosphorylation of 4-methylumbelliferyl phosphate (MUP) was measured at 460 nm. The in vitro assay was conducted in Greiner 384-well PS microplates F-well, using two controls: a) 0.5% dimethyl sulfoxide (DMSO) and b) 5 μM abscisic acid (ABA). The assay described here was generally conducted with substance concentrations of the appropriate chemical test substances in a concentration range of 0.1 μM to 100 μM in a solution of DMSO and water. The substance solution thus obtained, if necessary, was stirred with esterase from porcine liver (EC 3.1.1.1) at room temperature for 3 h and centrifuged at 4000 rpm for 30 min. A total volume of 45 μl was introduced into each cavity of the microplate, having the following composition: • 1) 5 μl of substance solution, i.e. a) DMSO 5% or b) abscisic acid solution or c) the corresponding example compound of the general formula (I) dissolved in 5% DMSO. • 2) 20 μl of enzyme buffer mix, composed of a) 40% by vol. of enzyme buffer (10 mL contain equal proportions by volume of 500 mM Tris-HCl pH 8, 500 mM NaCl, 3.33 mM MnCl2, 40 mM dithiothreitol (DTT)), b) 4% by vol. of ABI1 dilution (protein stock solution was diluted so as to give, after addition, a final concentration in the assay of 0.15 μg ABI1/well), c) 4% by vol. of RCAR11 dilution (enzyme stock was diluted so as to give, on addition of the dilution to the enzyme buffer mix, a final concentration in the assay of 0.30 μg enzyme/well), d) 5% by vol. of Tween20 (1%), e) 47% by vol. H2O bi-dist. • 3) 20 μl of substrate mix, composed of a) 10% by vol. of 500 mM Tris-HCl pH8, b) 10% by vol. of 500 mM NaCl, c) 10% by vol. of 3.33 mM MnCl2, d) 5% by vol. of 25 mM MUP, 5% by vol. of Tween20 (1%), 60% by vol. of H2O bi-dist.
Enzyme buffer mix and substrate mix were made up 5 minutes prior to the addition and warmed to a temperature of 35° C. On completion of pipetting of all the solutions and on completion of mixing, the plate was incubated at 35° C. for 20 minutes. Finally, a relative fluorescence measurement was made at 35° C. with a BMG Labtech “POLARstar Optima” microplate reader using a 340/10 nm excitation filter and a 460 nm emission filter. The efficacy of the compounds of the general formula (I) is reported in the table which follows using abscisic acid […] as comparative substance (No. 37) according to the following classification: ++++ (inhibition≧90%), +++ (90%>inhibition≧70%), ++ (70%>inhibition≧50%), + (50%>inhibition≧30%). […]
With `COC(=O)CN1C(=O)CCc2cc(NS(=O)(=O)Cc3cccc(C)c3)ccc21` [A50-153], the ABI1 inhibition entry is “++ (70%>inhibition≧50%)”.
The same measure for `O=C1CCc2cc(NS(=O)(=O)Cc3ccc(Cl)cc3)ccc2N1CC(F)(F)C(F)(F)F` [A10-165]: “++++ (inhibition≧90%)”; for `O=C1CCc2cc(NS(=O)(=O)Cc3ccc(F)cc3)ccc2N1CC1CCC1` [A21-158]: “++++ (inhibition≧90%)”.
Turning to `O=C1CCc2cc(NS(=O)(=O)Cc3cccc(Cl)c3)ccc2N1CC(F)F` [A1-166], the ABI1 inhibition entry is “++ (70%>inhibition≧50%)”.
The same measure for `CC(C#N)CN1C(=O)CCc2cc(NS(=O)(=O)Cc3ccc(Cl)cc3)ccc21` (stereo not drawn) [A47-165]: “++++ (inhibition≧90%)”; for `O=C1CCc2cc(NS(=O)(=O)Cc3cccc(C(F)(F)F)c3)ccc2N1CC(F)(F)F` [A2-179]: “+++ (90%>inhibition≧70%)”.
As for `Cc1cccc(CS(=O)(=O)Nc2ccc3c(c2)CCC(=O)N3CC(F)(F)F)c1` [A2-153], the entry is “+++ (90%>inhibition≧70%)”; as for `COCCN1C(=O)CCc2cc(NS(=O)(=O)Cc3ccc(C(F)(F)F)cc3)ccc21` [A38-178], “++++ (inhibition≧90%)”; as for `N#Cc1ccc(CS(=O)(=O)Nc2ccc3c(c2)CCC(=O)N3CC2CCC2)cc1` [A21-181, N-[1-(Cyclobutylmethyl)-2-oxo-1,2,3,4-tetrahydroquinolin-6-yl]-1-(4-cyanophenyl)methanesulfonamide], “++++ (inhibition≧90%)”.
As for `N#Cc1ccc(CS(=O)(=O)Nc2ccc3c(c2)CCC(=O)N3CCC(F)(F)F)cc1` [A7-181], the entry is “++++ (inhibition≧90%)”.
For the molecule `O=C1CCc2cc(NS(=O)(=O)Cc3ccc(C(F)(F)F)cc3)ccc2N1CC1CCC1` [A21-178], the ABI1 inhibition result is “+++ (90%>inhibition≧70%)”.
As for `O=C1CCc2cc(NS(=O)(=O)Cc3ccc([N+](=O)[O-])cc3)ccc2N1CC(F)(F)F` [A2-175], the entry is “++++ (inhibition≧90%)”.
The same measure for `O=C1CCc2cc(NS(=O)(=O)Cc3ccc(Br)cc3)ccc2N1CC(F)F` [A1-172]: “++++ (inhibition≧90%)”; for `COC(=O)CN1C(=O)CCc2cc(NS(=O)(=O)Cc3ccccc3)ccc21` [A50-151]: “++ (70%>inhibition≧50%)”; for `COC(=O)CN1C(=O)CCc2cc(NS(=O)(=O)Cc3ccccc3F)ccc21` [A50-161]: “+++ (90%>inhibition≧70%)”.
The same measure for `COC(=O)CN1C(=O)CCc2cc(NS(=O)(=O)Cc3ccc(Br)cc3)ccc21` [A50-172]: “++++ (inhibition≧90%)”; for `COC(=O)CCN1C(=O)CCc2cc(NS(=O)(=O)Cc3ccccc3[N+](=O)[O-])ccc21` [A51-177]: “++ (70%>inhibition≧50%)”.
As for `Cc1ccc(CS(=O)(=O)Nc2ccc3c(c2)CCC(=O)N3CCC(F)(F)F)cc1` [A7-152], the ABI1 inhibition entry is “++++ (inhibition≧90%)”.
As for `Cc1ccc(CS(=O)(=O)Nc2ccc3c(c2)CCC(=O)N3CC(F)(F)F)cc1` [A2-152], the entry is “++++ (inhibition≧90%)”.
As for `CCc1ccc(CS(=O)(=O)Nc2ccc3c(c2)CCC(=O)N3CC2CC2)cc1` [A19-325, N-[1-(Cyclopropylmethyl)-2-oxo-1,2,3,4-tetrahydroquinolin-6-yl]-1-(4-ethylphenyl)methanesulfonamide], the entry is “++++ (inhibition≧90%)”.
The same measure for `N#Cc1cccc(CS(=O)(=O)Nc2ccc3c(c2)CCC(=O)N3CCC(F)(F)F)c1` [A7-182]: “++ (70%>inhibition≧50%)”.
For the molecule `O=C1CCc2cc(NS(=O)(=O)Cc3ccc(C(F)(F)F)cc3)ccc2N1CC(F)(F)F` [A2-178], the ABI1 inhibition entry was “++++ (inhibition≧90%)”.
As for `Cc1ccc(CS(=O)(=O)Nc2ccc3c(c2)CCC(=O)N3CC2CCCC2)cc1` [A22-152], the entry is “+++ (90%>inhibition≧70%)”; as for `COC(=O)CCN1C(=O)CCc2cc(NS(=O)(=O)Cc3ccccc3F)ccc21` [A51-161], “+++ (90%>inhibition≧70%)”.
